Experimental data reported in PubChem BioAssay (NCI).
Several values for one entry are separate records, joined by “and”; a condition that tells them apart may be missing. Equal values may be shown once.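 Protocol summary: plate cells (96-well), add compound at 5 concentrations, incubate 48 h, interpolate endpoints linearly. GI50 = concentration required for 50% inhibition of growth. TGI: concentration producing complete growth inhibition.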

Columns and labels:
Test in all cases: NCI-60 cell line screen, 48 h
[1] = system: CCRF-CEM leukemia
[2] = system: KM12 colon
[3] = system: OVCAR-8 ovarian
[4] = system: HOP-92 NSCLC
[5] = system: SNB-75 CNS
[6] = system: MDA-MB-435
[7] = system: HT29 colon
[8] = system: MALME-3M melanoma
[9] = system: SNB-19 CNS
[10] = system: HCC-2998 colon

Row | Compound | TGI [1] | TGI [2] | TGI [3] | TGI [4] | TGI [5] | TGI [6] | TGI [7] | TGI [8] | TGI [9] | TGI [10] | GI50 [1] | GI50 [2] | GI50 [3] | GI50 [4] | GI50 [5] | GI50 [7] | GI50 [8] | GI50 [9] | GI50 [10]
1 | CN(CC(=O)O)Cc1c(O)c(Cl)cc(Cl)c1Cl | 50.4 µM | > 100 µM | > 100 µM | > 100 µM | > 100 µM | > 100 µM | > 100 µM | > 100 µM | > 100 µM | – | – | – | – | – | – | – | – | – | –
2 | OC[C@H]1NC[C@@H](O)[C@@H](O)[C@H]1O | > 100 µM | > 100 µM | > 100 µM | > 100 µM | > 100 µM | > 100 µM | > 100 µM | > 100 µM | > 100 µM | > 100 µM | – | – | – | – | – | – | – | – | –
3 | CSc1nc(CO)c(CO)n1C | > 100 µM | > 100 µM | > 100 µM | > 100 µM | > 100 µM | – | > 100 µM | – | > 100 µM | > 100 µM | – | – | – | – | – | – | – | – | –
4 | CCCCN1C(=O)c2c(Br)sc(Br)c2C1=O | > 100 µM | 87.5 µM | > 100 µM | – | 90.5 µM | > 100 µM | 47.1 µM | > 100 µM | > 100 µM | > 100 µM | – | – | – | – | – | – | – | – | –
5 | Cc1[nH]c(=O)[nH]c(=O)c1/C=C/C(=O)NC(CO)CS(=O)CS(C)=O (stereo unspecified) | 111 µM | > 92.1 µM | 122 µM | 44 µM | 38.8 µM | – | 515 µM | 57.9 µM | 77.9 µM | 53.8 µM | – | – | – | – | – | – | – | – | –
6 | COc1ccccc1CC(C)N (stereo unspecified) | > 100 µM | > 100 µM | > 100 µM | > 100 µM | > 100 µM | – | > 100 µM | > 100 µM | > 100 µM | > 100 µM | – | – | – | – | – | – | – | – | –
7 | COc1ccc(-c2nc3c(nc2-c2ccc(OC)cc2)C(N)=NS(=O)(=O)N3)cc1 | > 100 µM | > 100 µM | > 100 µM | – | > 100 µM | – | > 100 µM | > 100 µM | > 100 µM | > 100 µM | – | – | – | – | – | – | – | – | –
8 | CCOC(=O)Cn1c2ccc(Br)cc2c2nc3ccccc3nc21 | > 100 µM | > 100 µM | > 100 µM | > 100 µM | > 100 µM | > 100 µM | > 100 µM | – | > 100 µM | – | – | – | – | – | – | – | – | – | –
9 | Nc1[nH]c(=S)nc2nc3c(c(-c4ccccc4)c12)CCCC3 | – | > 100 µM | > 100 µM | – | > 100 µM | > 100 µM | > 100 µM | > 100 µM | > 100 µM | – | – | – | – | – | – | – | – | – | –
10 | CC1C(=O)CC(c2cccs2)N(N=O)C1c1cccs1 (stereo unspecified) | > 100 µM | > 100 µM | > 100 µM | 83.3 µM | > 74 µM | – | > 59.1 µM | > 100 µM | > 100 µM | > 100 µM | – | – | – | – | – | – | – | – | –
11 | COC(=O)C1=C(C)N2CCSC2(C)C(C(=O)OC)C1c1cccc(Cl)c1 (stereo unspecified) | 69.5 µM | 62.3 µM | > 100 µM | 53.2 µM | 42.9 µM | – | 33.4 µM | – | 73.2 µM | 40 µM | – | – | – | – | – | – | – | – | –
12 | NC(CCOCCP(=O)(O)CCC1C=CC=CC1)C(=O)O (stereo unspecified) | > 100 µM | > 100 µM | > 100 µM | > 100 µM | > 100 µM | > 100 µM | > 100 µM | – | > 100 µM | > 100 µM | – | – | – | – | – | – | – | – | –
13 | CCN(CC)CC[n+]1ccc2c(C)c3[nH]c4ccc(O)cc4c3c(C)c2c1 | 33 µM and 23.1 µM | 20.1 µM and 17.6 µM | 44.6 µM and 13.3 µM | 32.6 µM and 12.4 µM | 7.51 µM and 2.83 µM | 23.1 µM | 41.1 µM and > 67.5 µM | 19.3 µM and 22.3 µM | 8.76 µM and 10.8 µM | 22.6 µM and 85.4 µM | 808 nM | 3.72 µM | 1230 nM | 2330 nM | 523 nM | 12.6 µM | 3.91 µM | 634 nM | 6.94 µM
14 | CCc1n[nH]c(=O)n1/N=C(\C)c1ccc([N+](=O)[O-])cc1 | > 100 µM | > 100 µM | > 100 µM | > 100 µM | – | > 100 µM | > 100 µM | – | > 100 µM | – | – | – | – | – | – | – | – | – | –
15 | CCOC(=O)CCC(C(=O)OCC)n1nc2ccc(Nc3c(C)[n+]([O-])c4cc(F)c(OCC)cc4[n+]3[O-])cc2n1 (stereo unspecified) | > 100 µM | > 100 µM | > 100 µM | 87.8 µM | 32.9 µM | > 100 µM | > 100 µM | > 100 µM | > 100 µM | > 100 µM | – | – | – | – | – | – | – | – | –
16 | N#CC1=C2SCCN2C(=O)C(C#N)C12CCCCC2 (stereo unspecified) | > 100 µM | > 100 µM | > 100 µM | > 100 µM | > 100 µM | > 100 µM | > 100 µM | > 100 µM | > 100 µM | > 100 µM | – | – | – | – | – | – | – | – | –
17 | COc1ccc(NC(C)=O)cc1N1C(=O)/C(=C\c2ccccc2)SC1c1cc(OC)c(OC)c(OC)c1 (stereo unspecified) | > 100 µM | 35.8 µM | 71.4 µM | > 100 µM | – | > 100 µM | > 100 µM | 56.2 µM | > 100 µM | 47.4 µM | – | – | – | – | – | – | – | – | –
18 | CN(C)CCNC(=O)c1cc(Cl)cc2cc3ccccc3nc12 | 3.28 µM | 10.1 µM | 6.18 µM | – | 6.09 µM | – | 2.41 µM | 14.9 µM | 7.47 µM | 3.15 µM | – | – | – | – | – | – | – | – | –
